“Also recorded” adds a separate entry of the source.

One compound from patent US11111222B2, “Hydroxyeicosatrienoic acid compounds and their use as therapeutic agents” (THE REGENTS OF THE UNIVERSITY OF MICHIGAN, priority 2016, dated 2021) can be followed below.

One data set has as its system adenylyl cyclase. Description: LC/MS quantification of cAMP in washed human platelets. Format: cell-based. The following applies: 25 μM, 1 min; platelets pre-treated with 10 μM IBMX; vs DMSO. The procedure: Washed human platelets were treated with the specific ligand or vehicle control for 1 min at room temperature, and quenched with an equal volume of ice-cold 2× platelet lysis buffer containing protease and phosphatase inhibitors. Lysed platelet samples were centrifuged at 14,000 g for 7 min at 4° C. to pellet cytoskeleton and the supernatant was stored in −80° C.
To prepare the sample for LC/MS injection, 200 μL of the supernatant was spiked with 400 pg of adenosine-3′,5′-cyclic-13C5 monophosphate (^13C5-cAMP) (Toronto Research Chemicals, Inc.), an internal standard, and 600 μL of LC/MS grade acetonitrile (Fisher Scientific). The sample was briefly vortexed and centrifuged at 14,000 rpm for 10 min at 4° C. The supernatants were then air dried in a SpeedVac and reconstituted in 200 μL of LC/MS grade water and centrifuged at 10,000 rpm for 5 min at 4° C. and used for LC/MS injection.
The separation and detection of cAMP was performed on a Waters ACQUITY UPLC system equipped with a Xevo Triple Quadrupole Mass Spectrometer (TQ-S MS/MS). […]
The mass spectrometer was operated with an ESI source in positive mode. […] Cyclic AMP (cAMP) was quantitated using ^13C5-cAMP as the internal standard. […]

The test system of data set [1] is washed platelets from WT or 12-LOX−/− mice. Description: Platelet aggregation, washed murine platelets (lumi-aggregometer). The class given is cell-based, mouse. The following applies: 25 μM 12-LOX oxylipin, 10 min, vs vehicle. The procedure:
The 12-LOX null C57BL/6 (12-LOX^−/−) mice were generated using homozygous breeding pairs and wild-type (WT) C57BL/6 ([…]) mice were purchased (Jackson Laboratory). […] Mouse blood was diluted with equal volumes of Tyrode's buffer (10 mM HEPES, 11.9 mM sodium bicarbonate, 127.2 mM sodium chloride, 5 mM potassium chloride, 0.4 mM sodium phosphate monobasic, 1 mM magnesium chloride, and 5 mM D-glucose) and centrifuged at 200×g. Platelet-rich-plasma (PRP) was transferred to a tube containing 10× acid citrate dextrose solution (ACD) (2.5% sodium citrate, 1.5% citric acid, and 2% D-glucose) and apyrase (0.02 U/mL), and centrifuged at 2000×g. Platelet count was adjusted to 3×10^8 platelets/mL with Tyrode's buffer for all studies.
A lumi-aggregometer (Chrono-log model 700D) was used to measure platelet aggregation under stirring conditions (1100 rpm) at 37° C. Prior to agonist stimulation platelets were incubated with a preselected PUFA or oxylipin for 10 minutes.

Data set [2] concerns platelets of mice expressing the human FcγRIIa receptor. Nature of the data set: Animal model of ITP (anti-GPIX in mice expressing human FcγRIIa). The following applies: 6 mg/kg i.v. 10 min before GPIX antibody. The class given is in vivo, mouse. The procedure:
Mice expressing the human immune-receptor FcγRIIa were injected IV with GPIX, an antibody known to induce acute ITP (Stolla et al., Blood 118(4): 1113-1120, 2011) as previously described (Yeung et al., Blood 124(4): 2271-2279, 2014). […] To determine if 12(S)-HETrE compounds would be viable therapeutics to prevent ITP in this model, 6 mg/kg 12(S)-HETrE was injected IV 10 minutes prior to GPIX antibody injection, and platelet count was measured at several time points prior to and following antibody injection. Additionally, immunofluorescent-labelled platelets that had been injected prior to the onset of ITP were measured in excised lungs 4 hours following GPIX administration.

Another data set concerns Rap1. Description: Rap1 activation in washed platelets (Rap1-GTP pull-down, Western blot). The class given is cell-based, mouse. The following applies: 25 μM 12-HETrE, PAR4-AP stimulated, vs vehicle. The procedure: Following 1 minute of stimulation platelets were lysed with 2× platelet lysis buffer (100 mM Tris HCl, pH 7.4, 150 mM NaCl, 2% IGEPAL, 1% sodium deoxycholate, and 0.05% SDS) containing protease and phosphatase inhibitors. The cytoskeleton was pelleted by centrifugation at 14000×g for 7 minutes at 4° C. Active Rap1 was selectively captured from the supernatant by incubating GST-tagged Rap1 binding domain of RalGDS conjugated to glutathione sepharose beads for one hour on a nutator at 4° C. The beads were then washed 5 times with IP buffer and resuspended in 2× Laemmeli reducing buffer (62.5 mM Tris-HCl, pH 6.8, 2% SDS, 25% glycerol, 0.01% bromophenol blue, 5% β-mercaptoethanol). The samples were boiled for 10 minutes and then loaded onto a 10% SDS-polyacrylamide gel electrophoresis (PAGE) gel. Western blots were performed using a Rap1 antibody and quantified with a LI-COR imager.

Data set [3] can be described thus: Cremaster muscle arterial puncture model of hemostasis. The class given is in vivo, mouse. The following applies: laser puncture of cremaster arteriole; vs control treated mice. The procedure: Mice were anesthetized, tail vein injected with anti-platelet and anti-fibrin antibodies and their cremaster muscle arterioles were prepared as described above. A high intensity laser pulse from the laser ablation system was used to puncture a hole in the cremaster muscle arteriole wall as visualized by red blood cell (RBC) leakage from the vessel. Images of RBCs leakage and hemostatic plug formation were acquired in real-time with a fluorescent microscope as described above. Arterial bleeding time was defined as the time from laser pulse injury until cessation of RBC leakage from the vessel.

The subject of another data set is washed human platelets. Nature of the data set: Human platelet aggregation after pre-treatment with adenylyl cyclase inhibitor SQ 22536. Format: cell-based. The following applies: platelets pre-treated with SQ 22536 (25 μM, 20 min); 12-HETrE 7.5 to 25 μM, 1 min; EC80 PAR4-AP. The procedure:
Blood from healthy donors was collected into vacutainers containing buffered sodium citrate, and platelets were isolated by serial centrifugation as described above for mouse platelets. The platelets were resuspended in Tyrode's buffer at 3×10^8 platelets/mL, unless otherwise specified.
A lumi-aggregometer (Chrono-log model 700D) was used to measure platelet aggregation under stirring conditions (1100 rpm) at 37° C. […]

For the compound `CCCCC/C=C\C[C@H](O)/C=C/C=C\CCCCCCC(=O)O` [12(S)-HETrE, 12(S)-hydroxy-8Z,10E,14Z-eicosatrienoic acid], the “level of intracellular cAMP” value with adenylyl cyclase is “significant increase in the level of intracellular cAMP”. For the same compound, the platelet aggregation result is “inhibited the aggregation” in data set [1] (12-LOX−/− mouse platelets, EC80 PAR4-AP (200 μM) or collagen (2 or 5 μg/mL)) and “inhibited the aggregation” in data set [1] (WT mouse platelets, EC80 PAR4-AP (100 μM) or collagen (5 μg/mL)). The “reduction of thrombi in the lungs” value in data set [2] (excised lungs) is reported as “more than 40%”. The “accumulation of fluorescently labeled platelets in the lungs” value in data set [2] (lungs excised 4 hours after GPIX, vs vehicle) is listed as “prevented accumulation of fluorescently labeled platelets in the lungs”. The “platelet count (thrombocytopenia)” value in data set [2] (vs vehicle) is “no signs of thrombocytopenia; also recorded: prevented thrombocytopenia”. The “Rap1 activation (Rap1-GTP)” value with Rap1 (12-LOX−/− mouse platelets) and with Rap1 (WT mouse platelets) was “suppressed Rap1 activation” in each case. For the same compound, the “duration of RBC leakage (arterial bleeding time)” value in data set [3] is reported as “No significant difference in the duration of RBC leakage”. Moreover, the PAR4-AP-mediated platelet aggregation result in the data set on washed human platelets is “unable to inhibit PAR4-AP-mediated platelet aggregation”.
